In US12077503B2, “Substituted cyclic amides and their use as herbicides” (FMC CORPORATION, priority 2015, dated 2024):

What was measured:
Format in all cases: in vivo
[1] = system: corn (Zea mays); test: Test G Post-Emergence Protocol; settings: Zea mays, post-emergence, 312 h, read-out: Corn damage rating; for plant injury at 15.625 g/ha: 15.625 g ai/ha, evaluated after 13 days (100=total damage to plant; 0=no damage to plant); for plant injury at 62.5 g/ha: 62.5 g ai/ha; for plant injury at 62.5 g/ha / plant injury at 250 g/ha: evaluated after 13 days, 100=total damage to plant, 0=no damage to plant; for plant injury at 250 g/ha: 250 g ai/ha
Method in brief: (§1)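 Seedlings grown 8 days in soil in a glasshouse (24/16 °C day/night, 14 h light, 65% humidity) were sprayed post-emergence with compound in acetone/water 50:50 plus 0.5% Tween 20 at 15.625, 62.5 or 250 g/ha. Damage was scored after 13 days on a 0–100 scale (100 = total damage).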

[2] = system: velvetleaf (Abutilon theophrasti); test: Test G Post-Emergence Protocol; settings: Abutilon theophrasti, post-emergence, 312 h, read-out: Velvetleaf damage rating; for pest or weed control at 15.625 g/ha: 15.625 g ai/ha, evaluated after 13 days (100=total damage to plant; 0=no damage to plant); for pest or weed control at 62.5 g/ha: 62.5 g ai/ha; for pest or weed control at 62.5 g/ha / pest or weed control at 250 g/ha: evaluated after 13 days, 100=total damage to plant, 0=no damage to plant; for pest or weed control at 250 g/ha: 250 g ai/ha
Method in brief: as §1

[3] = system: giant foxtail (Setaria faberi); test: Test G Post-Emergence Protocol; settings: Setaria faberi, post-emergence, 312 h, read-out: Foxtail, Giant damage rating; for pest or weed control at 15.625 g/ha: 15.625 g ai/ha, evaluated after 13 days (100=total damage to plant; 0=no damage to plant); for pest or weed control at 62.5 g/ha: 62.5 g ai/ha; for pest or weed control at 62.5 g/ha / pest or weed control at 250 g/ha: evaluated after 13 days, 100=total damage to plant, 0=no damage to plant; for pest or weed control at 250 g/ha: 250 g ai/ha
Method in brief: as §1

[4] = system: redroot pigweed (Amaranthus retroflexus); test: Test G Post-Emergence Protocol; settings: Amaranthus retroflexus, post-emergence, 312 h, read-out: Pigweed, Redroot damage rating; for pest or weed control at 15.625 g/ha: 15.625 g ai/ha, evaluated after 13 days (100=total damage to plant; 0=no damage to plant); for pest or weed control at 62.5 g/ha: 62.5 g ai/ha; for pest or weed control at 62.5 g/ha / pest or weed control at 250 g/ha: evaluated after 13 days, 100=total damage to plant, 0=no damage to plant; for pest or weed control at 250 g/ha: 250 g ai/ha
Method in brief: as §1

[5] = system: ivy-leaved morning glory (Ipomoea hederacea); test: Test G Post-Emergence Protocol; settings: Ipomoea, post-emergence, 312 h, read-out: Morningglory, Ivy-leaved damage rating; for pest or weed control at 15.625 g/ha: 15.625 g ai/ha, evaluated after 13 days (100=total damage to plant; 0=no damage to plant); for pest or weed control at 62.5 g/ha: 62.5 g ai/ha; for pest or weed control at 62.5 g/ha / pest or weed control at 250 g/ha: evaluated after 13 days, 100=total damage to plant, 0=no damage to plant; for pest or weed control at 250 g/ha: 250 g ai/ha
Method in brief: as §1

[6] = system: barnyardgrass (Echinochloa crus-galli); test: Test G Post-Emergence Protocol; settings: Echinochloa crus-galli, post-emergence, 312 h, read-out: Barnyardgrass damage rating; for pest or weed control at 15.625 g/ha: 15.625 g ai/ha, evaluated after 13 days (100=total damage to plant; 0=no damage to plant); for pest or weed control at 62.5 g/ha: 62.5 g ai/ha; for pest or weed control at 62.5 g/ha / pest or weed control at 250 g/ha: evaluated after 13 days, 100=total damage to plant, 0=no damage to plant; for pest or weed control at 250 g/ha: 250 g ai/ha
Method in brief: as §1

[7] = system: corn (Zea mays); test: Test G Pre-Emergence Protocol; settings: evaluated after 13 days; for plant injury at 62.5 g/ha: 62.5 g ai/ha, 100=total damage to plant, 0=no damage to plant, read-out: Corn damage rating
Method in brief: (§2)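 One day after sowing, pots are treated with a spray of test compound formulated in acetone/water 50:50 plus 0.5% Tween 20, giving 15.625, 62.5 or 250 g/ha. Evaluation on a 0–100 damage scale follows 13 days of glasshouse growth.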

[8] = system: velvetleaf (Abutilon theophrasti); test: Test G Pre-Emergence Protocol; settings: evaluated after 13 days; for pest or weed control at 62.5 g/ha: 62.5 g ai/ha, 100=total damage to plant, 0=no damage to plant, read-out: Velvetleaf damage rating
Method in brief: as §2

[9] = system: giant foxtail (Setaria faberi); test: Test G Pre-Emergence Protocol; settings: Setaria faberi, pre-emergence, 312 h, evaluated after 13 days; for pest or weed control at 15.625 g/ha: 15.625 g ai/ha; for pest or weed control at 15.625 g/ha / pest or weed control at 250 g/ha: read-out: Foxtail, Giant damage rating (100=total damage to plant; 0=no damage to plant); for pest or weed control at 62.5 g/ha: 62.5 g ai/ha, 100=total damage to plant, 0=no damage to plant, read-out: Foxtail, Giant damage rating; for pest or weed control at 250 g/ha: 250 g ai/ha
Method in brief: as §2

[10] = system: redroot pigweed (Amaranthus retroflexus); test: Test G Pre-Emergence Protocol; settings: evaluated after 13 days; for pest or weed control at 62.5 g/ha: 62.5 g ai/ha, 100=total damage to plant, 0=no damage to plant, read-out: Pigweed, Redroot damage rating
Method in brief: as §2

[11] = system: ivy-leaved morning glory (Ipomoea hederacea); test: Test G Pre-Emergence Protocol; settings: evaluated after 13 days; for pest or weed control at 15.625 g/ha: 15.625 g ai/ha; for pest or weed control at 62.5 g/ha: 62.5 g ai/ha, 100=total damage to plant, 0=no damage to plant, read-out: Morningglory, Ivy-leaved damage rating
Method in brief: as §2

[12] = system: barnyardgrass (Echinochloa crus-galli); test: Test G Pre-Emergence Protocol; settings: Echinochloa crus-galli, pre-emergence, 312 h, evaluated after 13 days; for pest or weed control at 15.625 g/ha: 15.625 g ai/ha; for pest or weed control at 15.625 g/ha / pest or weed control at 250 g/ha: read-out: Barnyardgrass damage rating (100=total damage to plant; 0=no damage to plant); for pest or weed control at 62.5 g/ha: 62.5 g ai/ha, 100=total damage to plant, 0=no damage to plant, read-out: Barnyardgrass damage rating; for pest or weed control at 250 g/ha: 250 g ai/ha
Method in brief: as §2

[13] = Abutilon theophrasti, pre-emergence, 312 h
[14] = Amaranthus retroflexus, pre-emergence, 312 h
[15] = Ipomoea, pre-emergence, 312 h, read-out: Morningglory, Ivy-leaved damage rating (100=total damage to plant; 0=no damage to plant)

| Structure (SMILES) | plant injury at 15.625 g/ha [1] [%] | plant injury at 62.5 g/ha [1] [%] | plant injury at 250 g/ha [1] [%] | pest or weed control at 15.625 g/ha [2] [%] | pest or weed control at 62.5 g/ha [2] [%] | pest or weed control at 250 g/ha [2] [%] | pest or weed control at 15.625 g/ha [3] [%] | pest or weed control at 62.5 g/ha [3] [%] | pest or weed control at 250 g/ha [3] [%] | pest or weed control at 15.625 g/ha [4] [%] | pest or weed control at 62.5 g/ha [4] [%] | pest or weed control at 250 g/ha [4] [%] | pest or weed control at 15.625 g/ha [5] [%] | pest or weed control at 62.5 g/ha [5] [%] | pest or weed control at 250 g/ha [5] [%] | pest or weed control at 15.625 g/ha [6] [%] | pest or weed control at 62.5 g/ha [6] [%] | pest or weed control at 250 g/ha [6] [%] | plant injury at 62.5 g/ha ([7]; Zea mays, pre-emergence, 312 h) [%] | pest or weed control at 62.5 g/ha [8, 13] [%] | other results |
| --- | --- | --- | --- | --- | --- | --- | --- | --- | --- | --- | --- | --- | --- | --- | --- | --- | --- | --- | --- | --- | --- |
| CN1C[C@@H](c2ccc(C(F)(F)F)cc2)[C@H](C(=O)Nc2ccc(F)nc2F)C1=O (racemic) [Compound 1650] | 10 | 50 | 70 | 0 | 20 | 40 | 70 | 80 | 80 | 10 | 70 | 80 | 20 | 10 | 20 | 40 | 80 | 80 | 0 | 0 | plant injury at 15.625 g/ha ([7]; Zea mays, pre-emergence, 312 h, 15.625 g ai/ha, read-out: Corn damage rating (100=total damage to plant; 0=no damage to plant)): 0%; plant injury at 250 g/ha ([7]; Zea mays, pre-emergence, 312 h, 250 g ai/ha, read-out: Corn damage rating (100=total damage to plant; 0=no damage to plant)): 80%; pest or weed control at 15.625 g/ha ([8]; Abutilon theophrasti, pre-emergence, 312 h, 15.625 g ai/ha, read-out: Velvetleaf damage rating (100=total damage to plant; 0=no damage to plant)): 0%; pest or weed control at 250 g/ha ([8]; Abutilon theophrasti, pre-emergence, 312 h, 250 g ai/ha, read-out: Velvetleaf damage rating (100=total damage to plant; 0=no damage to plant)): 50%; pest or weed control at 15.625 g/ha [9]: 40%; pest or weed control at 62.5 g/ha [9]: 90%; pest or weed control at 250 g/ha [9]: 90%; pest or weed control at 15.625 g/ha ([10]; Amaranthus retroflexus, pre-emergence, 312 h, 15.625 g ai/ha, read-out: Pigweed, Redroot damage rating (100=total damage to plant; 0=no damage to plant)): 0%; pest or weed control at 62.5 g/ha [10, 14]: 70%; pest or weed control at 250 g/ha ([10]; Amaranthus retroflexus, pre-emergence, 312 h, 250 g ai/ha, read-out: Pigweed, Redroot damage rating (100=total damage to plant; 0=no damage to plant)): 80%; pest or weed control at 15.625 g/ha [11, 15]: 0%; pest or weed control at 62.5 g/ha ([11]; Ipomoea, pre-emergence, 312 h): 0%; pest or weed control at 250 g/ha ([11]; Ipomoea, pre-emergence, 312 h, 250 g ai/ha, read-out: Morningglory, Ivy-leaved damage rating (100=total damage to plant; 0=no damage to plant)): 0%; pest or weed control at 15.625 g/ha [12]: 10%; pest or weed control at 62.5 g/ha [12]: 70%; pest or weed control at 250 g/ha [12]: 90% |
| COc1c(Cl)ccc([C@H]2CN(C)C(=O)[C@@H]2C(=O)Nc2cccc(F)c2F)c1F [Compound 1773] | 70 | 80 | 80 | 0 | 20 | 40 | 80 | 80 | 80 | 20 | 20 | 40 | 20 | 10 | 60 | 80 | 80 | 80 | 80 | 30 | Corn damage rating (100=total damage to plant; 0=no damage to plant) ([7]; 15.625 g ai/ha): 70; Corn damage rating (100=total damage to plant; 0=no damage to plant) ([7]; 250 g ai/ha): 80; Velvetleaf damage rating (100=total damage to plant; 0=no damage to plant) ([8]; 15.625 g ai/ha): 10; Velvetleaf damage rating (100=total damage to plant; 0=no damage to plant) ([8]; 250 g ai/ha): 60; pest or weed control at 15.625 g/ha [9]: 90%; pest or weed control at 62.5 g/ha [9]: 90%; pest or weed control at 250 g/ha [9]: 90%; Pigweed, Redroot damage rating (100=total damage to plant; 0=no damage to plant) ([10]; 15.625 g ai/ha): 20; Pigweed, Redroot damage rating (100=total damage to plant; 0=no damage to plant) ([10]; 250 g ai/ha): 70; pest or weed control at 62.5 g/ha [10, 14]: 20%; Morningglory, Ivy-leaved damage rating (100=total damage to plant; 0=no damage to plant) ([11]; 250 g ai/ha): 80; pest or weed control at 15.625 g/ha [11, 15]: 0%; pest or weed control at 62.5 g/ha ([11]; Ipomoea, pre-emergence, 312 h): 60%; pest or weed control at 15.625 g/ha [12]: 90%; pest or weed control at 62.5 g/ha [12]: 90%; pest or weed control at 250 g/ha [12]: 90% |
